The subject of series [1] is Plasmodium falciparum. In words: Antimalarial activity against Plasmodium falciparum W2 in parasite LDH assay to 16.72 uM. In kind it is functional, organism-based.
In series [2] the test system is Plasmodium falciparum. Nature of the series: Antimalarial activity against Plasmodium falciparum D6 in parasite LDH assay to 16.72 uM. Format: functional, organism-based.
A short description of series [3]: Selectivity index, ratio of IC50 for african green monkey (Cercopithecus aethiops) Vero cells to IC50 for Plasmodium falciparum W2. In kind it is functional.
Series [4] is described as follows: Selectivity index, ratio of IC50 for African green monkey (Cercopithecus aethiops) Vero cells to IC50 for Plasmodium falciparum D6. In kind it is functional.
In series [5] the test system is Plasmodium falciparum. In words: Antimalarial activity against Plasmodium falciparum D6 in parasite LDH assay. In kind it is functional, organism-based.
The next series has as its system Vero. In words: Cytotoxicity against african green monkey Vero cells by neutral red assay upto 16.72 uM. In kind it is cell-based. The settings on record: chlorocebus sabaeus.
In series [6] the test system is Plasmodium falciparum. Nature of the series: Antimalarial activity against Plasmodium falciparum W2 in parasite LDH assay. In kind it is functional, organism-based.

As usually defined, the IC50 is the concentration at which inhibition is half-maximal.

The source made the active and inactive calls. The calls are words filed in the database; no cut-off is given here.

Take `FC(F)(F)c1cccc(C2OOC(c3cccc(C(F)(F)F)c3)OO2)c1` (stereo not given): the result in the series on Plasmodium falciparum [1] and in the series on Plasmodium falciparum [2] was inactive.
In the case of `C[C@@H]1CC[C@H]2[C@@H](C)C(=O)O[C@@H]3O[C@@]4(C)CC[C@@H]1[C@]32OO4` [ARTEMISININ], the “Ratio IC50” value in series [3] was more than 1400; in series [4], more than 476. The IC50 in the series on Plasmodium falciparum [5] was found to be 35 nM; in the series on Plasmodium falciparum [6], 15 nM. In the series on Vero, the Activity result is recorded as “Non-toxic”.
As to `CCN(CC)CCCC(C)Nc1ccnc2cc(Cl)ccc12` (stereo not given) [CHLOROQUINE], the Activity entry with Vero was “Non-toxic”.
Consider `c1ccc(C2OOC3(CCCCCC3)OO2)cc1`, for which the “Ratio IC50” value is more than 2.5 in series [3] and more than 1.9 in series [4]. For the same compound, the IC50 came out at 9990 nM with Plasmodium falciparum [5] and 7590 nM in the series on Plasmodium falciparum [6]. Moreover, the Activity entry in the series on Vero is on record as “Non-toxic”.
Turning to `Clc1cccc(C2OOC3(CCCCC3)OO2)c1`, the “Ratio IC50” value in series [3] is more than 7.1; in series [4], more than 8.2. For the same compound, the IC50 came out at 2140 nM with Plasmodium falciparum [5] and 2470 nM in the series on Plasmodium falciparum [6]. For the same compound, in the series with Vero, the Activity result is “Non-toxic”.
`Brc1cccc(C2OOC(c3cccc(Br)c3)OO2)c1` (stereo not given): the result in the series with Plasmodium falciparum [1] and with Plasmodium falciparum [2] was inactive.
For the compound `Clc1ccc(C2OOC3(CCCCCC3)OO2)cc1`, the “Ratio IC50” value in series [3] and in series [4] was more than 1 each time. In addition, the concentration for half-maximal inhibition (IC50) in the series with Plasmodium falciparum [5] and with Plasmodium falciparum [6] was 16700 nM throughout. Further, the Activity entry in the series on Vero was “Non-toxic”.
Turning to `Clc1ccc(C2OOC3(CCCCC3)OO2)cc1`, the entries for the “Ratio IC50” value in series [3] and in series [4] were more than 6.8 and more than 6.6, respectively. Moreover, the IC50 in the series on Plasmodium falciparum [5] is 2660 nM; in the series with Plasmodium falciparum [6], 2590 nM. Besides, the Activity entry with Vero was “Non-toxic”.
`FC(F)(F)c1ccc(C2OOC(c3ccc(C(F)(F)F)cc3)OO2)cc1` (stereo not given): the outcome in the series with Plasmodium falciparum [1] and with Plasmodium falciparum [2] was inactive.
For `Brc1ccc(C2OOC3(CCCCC3)OO2)cc1`, the figures for the “Ratio IC50” value in series [3] and in series [4] were more than 2.8 and more than 4, respectively. Besides, the results for the IC50 with Plasmodium falciparum [5] and in the series on Plasmodium falciparum [6] were 3810 nM and 5390 nM, respectively. Further, the Activity entry with Vero is listed as “Non-toxic”.
Taken in the same sequence, the figures for `Fc1ccc(C2OOC(c3ccc(F)cc3)OO2)cc1` (stereo not given) were more than 14.9, more than 10.4, 1640 nM, 1140 nM and “Non-toxic”.
The like results for `Clc1ccccc1C1OOC2(CCCCC2)OO1` were, in that order, more than 1.9, more than 1.3, 14000 nM, 9240 nM and “Non-toxic”.
As for `Cc1cccc(C2OOC(c3cccc(C)c3)OO2)c1` (stereo not given), the “Ratio IC50” value in series [3] was more than 22.7; in series [4], more than 18.2. The half-maximal inhibitory concentration (IC50) was found to be 960 nM with Plasmodium falciparum [5] and 770 nM in the series with Plasmodium falciparum [6]. For the same compound, the Activity result with Vero was “Non-toxic”.
In the case of `Cc1ccccc1C1OOC(c2ccccc2C)OO1` (stereo not given), the entries for the “Ratio IC50” value in series [3] and in series [4] were more than 13.6 and more than 7.1, respectively. Moreover, the IC50 in the series on Plasmodium falciparum [5] is 2460 nM; in the series on Plasmodium falciparum [6], 1290 nM. Moreover, the Activity result with Vero is listed as “Non-toxic”.
As for `c1ccc(C2OOC3(CCCCC3)OO2)cc1`, the “Ratio IC50” value is listed as more than 11.1 in series [3] and more than 9.2 in series [4]. In addition, the half-maximal inhibitory concentration (IC50) worked out at 2200 nM with Plasmodium falciparum [5] and 1820 nM with Plasmodium falciparum [6]. Besides, the Activity result in the series on Vero is “Non-toxic”.
In the case of `Clc1ccc(C2OOC(c3ccc(Cl)cc3)OO2)cc1` (stereo not given), the “Ratio IC50” value in series [3] was more than 4.8; in series [4], more than 3.4. In addition, the IC50 with Plasmodium falciparum [5] worked out at 4470 nM; in the series on Plasmodium falciparum [6], 3190 nM. For the same compound, the Activity entry in the series with Vero is “Non-toxic”.
With `Clc1ccccc1C1OOC(c2ccccc2Cl)OO1` (stereo not given), the outcome in the series with Plasmodium falciparum [1] and in the series on Plasmodium falciparum [2] was inactive.
`Clc1ccc(C2OOC3(CCCC3)OO2)cc1`: the “Ratio IC50” value in series [3] and in series [4] was more than 1 throughout. Moreover, the 50% inhibitory concentration (IC50) in the series with Plasmodium falciparum [5] and in the series with Plasmodium falciparum [6] was 16700 nM in each case. The Activity result with Vero is given as “Non-toxic”.
As to `Brc1ccc(C2OOC(c3ccc(Br)cc3)OO2)cc1` (stereo not given), the “Ratio IC50” value is recorded as more than 13.6 in series [3] and more than 8.5 in series [4]. The IC50 is 1390 nM in the series on Plasmodium falciparum [5] and 670 nM in the series with Plasmodium falciparum [6]. The Activity entry in the series on Vero is recorded as “Non-toxic”.
Take `Brc1ccc(C2OOC3(CCCCCC3)OO2)cc1`: the outcome with Plasmodium falciparum [1] and in the series with Plasmodium falciparum [2] was inactive.
For `Cc1ccc(C2OOC(c3ccc(C)cc3)OO2)cc1` (stereo not given), the “Ratio IC50” value in series [3] is more than 14.9; in series [4] it was more than 11.9. For the same compound, the results for the IC50 in the series on Plasmodium falciparum [5] and in the series on Plasmodium falciparum [6] were 1470 nM and 1180 nM, respectively. The Activity entry in the series with Vero was “Non-toxic”.
Consider `Brc1ccc(C2OOC3(CCCC3)OO2)cc1`, for which the outcome in the series with Plasmodium falciparum [1] and in the series with Plasmodium falciparum [2] was inactive.
`Clc1cccc(C2OOC(c3cccc(Cl)c3)OO2)c1` (stereo not given): the “Ratio IC50” value in series [3] was more than 21.6; in series [4], more than 11.1. The half-maximal inhibitory concentration (IC50) in the series with Plasmodium falciparum [5] was 1370 nM; with Plasmodium falciparum [6], 700 nM. Besides, in the series on Vero, the Activity result is recorded as “Non-toxic”.
Turning to `Brc1ccccc1C1OOC(c2ccccc2Br)OO1` (stereo not given), the outcome in the series with Plasmodium falciparum [1] and with Plasmodium falciparum [2] was inactive.

For the origin of these results see ChEMBL document CHEMBL1142270, “Synthesis, thermal stability, antimalarial activity of symmetrically and asymmetrically substituted tetraoxanes” (Bioorg Med Chem Lett, 2008).
